{
  "source": "patent US20110269826A1",
  "about": "“Method” (priority 2008, published 2011)",
  "tested_on": "MPTP primates",
  "experiment": "Dyskinesia and locomotor studies in drug-naive MPTP primates incl. L-Dopa and apomorphine challenge",
  "experimental": "Evaluation of dyskinesias was performed in the efficacy studies describe above using a novel method for dyskinesia quantification based on video dyskinesia analysis (VDA) that assesses the whole range of dyskinetic movement continuously during the observed video sequence, using a standardized protocol.\nTo mimic clinical conditions, these drug-naive animals were further challenged with acute systemic administration of L-Dopa then with a pro-dyskinetic short-acting D1/D2 dopaminergic agonist (apomorphine).\nExperimental Design. Neurotoxin MPTP was first administrated to 23 macaques until they developed severe Parkinsonism, these were then divided into experimental groups according to the following experiments: • 1. […] Animals were then challenged with L-Dopa and the number of dyskinesias was assessed with a specific software (The Observer®, Noldus)\nBehaviour. All animals were assessed daily for their general clinical condition with special attention paid to the nutritional status. At the same time, the general neurological state of each macaque was assessed both pre- and post-lentiviral injections. To objectively quantify our neurological observations, animals were video-taped for 30 minutes before MPTP lesioning and at regular intervals following viral injections. The videos were then analyzed off-line by an examiner blinded to the experimental conditions. […]",
  "data": [
    {"molecule": "CN1CCc2cccc3c2[C@H]1Cc1ccc(O)c(O)c1-3", "note": "[apomorphine]", "values": [
      {"measurement": "dyskinesia induced by the drug in drug naive MPTP animals", "setting": "acute systemic administration, no therapeutic vector", "value": "induced hyperkinetic behaviour with numerous dyskinetic movements"},
      {"measurement": "locomotor activity of MPTP-long term and MPTP-LacZ primates after the drug", "setting": "oral L-Dopa / apomorphine injection, to levels similar to normal primates, p<0.05", "value": "improved the locomotor activity"}
    ]}
  ]
}
